Results taken from the kinase profiling compilation of Christmann-Franck et al. (2016).

Key:
Conditions in all cases: compound 10.0 µM
FGR (human) = FGR (human) (UniProt P09769)
CSNK1G1 (human) = CSNK1G1 (human) (UniProt Q9HCP0)
PRKCZ (human) = PRKCZ (human) (UniProt Q05513)
DCLK2 (human) = DCLK2 (human) (UniProt Q8N568)
MERTK (human) = MERTK (human) (UniProt Q12866)
VRK1 (human) = VRK1 (human) (UniProt Q99986)
INSRR (human) = INSRR (human) (UniProt P14616)
TEK (human) = TEK (human) (UniProt Q02763)
MARK3 (human) = MARK3 (human) (UniProt P27448)
MAPKAPK3 (human) = MAPKAPK3 (human) (UniProt Q16644)
CDK7 CCNH MNAT1 (human) = CDK7 CCNH MNAT1 (human) (UniProt P50613+P51948+P51946)
FES (human) = FES (human) (UniProt P07332)
PAK4 (human) = PAK4 (human) (UniProt O96013)
TXK (human) = TXK (human) (UniProt P42681)
MAPK9 (human) = MAPK9 (human) (UniProt P45984)
EPHB1 (human) = EPHB1 (human) (UniProt P54762)
CLK1 (human) = CLK1 (human) (UniProt P49759)
CDK9 CCNK (human) = CDK9 CCNK (human) (UniProt P50750+O75909)
TTK (human) = TTK (human) (UniProt P33981)
CAMK2B (human) = CAMK2B (human) (UniProt Q13554)
FER (human) = FER (human) (UniProt P16591)
FGFR3 (human) = FGFR3 (human) (UniProt P22607)
NTRK3 (human) = NTRK3 (human) (UniProt Q16288)
LRRK2 (human) = LRRK2 (human) (UniProt Q5S007)
CDK6 CCND3 (human) = CDK6 CCND3 (human) (UniProt Q00534+P30281)
GRK5 (human) = GRK5 (human) (UniProt P34947)
PLK3 (human) = PLK3 (human) (UniProt Q9H4B4)
GSG2 (human) = GSG2 (human) (UniProt Q8TF76)
CSNK1G2 (human) = CSNK1G2 (human) (UniProt P78368)
GSK3A (human) = GSK3A (human) (UniProt P49840)
ACVRL1 (human) = ACVRL1 (human) (UniProt P37023)
CAMK1G (human) = CAMK1G (human) (UniProt Q96NX5)
CLK2 (human) = CLK2 (human) (UniProt P49760)
EPHA6 (human) = EPHA6 (human) (UniProt Q9UF33)
LIMK1 (human) = LIMK1 (human) (UniProt P53667)
TGFBR1 (human) = TGFBR1 (human) (UniProt P36897)
STK16 (human) = STK16 (human) (UniProt O75716)
PRKG2 (human) = PRKG2 (human) (UniProt Q13237)
CSK (human) = CSK (human) (UniProt P41240)
PAK7 (human) = PAK7 (human) (UniProt Q9P286)
OXSR1 (human) = OXSR1 (human) (UniProt O95747)
PRKD2 (human) = PRKD2 (human) (UniProt Q9BZL6)
TLK2 (human) = TLK2 (human) (UniProt Q86UE8)
MYLK2 (human) = MYLK2 (human) (UniProt Q9H1R3)
Chain of MYLK2 (human) (Q9H1R3 whole entry, looked up): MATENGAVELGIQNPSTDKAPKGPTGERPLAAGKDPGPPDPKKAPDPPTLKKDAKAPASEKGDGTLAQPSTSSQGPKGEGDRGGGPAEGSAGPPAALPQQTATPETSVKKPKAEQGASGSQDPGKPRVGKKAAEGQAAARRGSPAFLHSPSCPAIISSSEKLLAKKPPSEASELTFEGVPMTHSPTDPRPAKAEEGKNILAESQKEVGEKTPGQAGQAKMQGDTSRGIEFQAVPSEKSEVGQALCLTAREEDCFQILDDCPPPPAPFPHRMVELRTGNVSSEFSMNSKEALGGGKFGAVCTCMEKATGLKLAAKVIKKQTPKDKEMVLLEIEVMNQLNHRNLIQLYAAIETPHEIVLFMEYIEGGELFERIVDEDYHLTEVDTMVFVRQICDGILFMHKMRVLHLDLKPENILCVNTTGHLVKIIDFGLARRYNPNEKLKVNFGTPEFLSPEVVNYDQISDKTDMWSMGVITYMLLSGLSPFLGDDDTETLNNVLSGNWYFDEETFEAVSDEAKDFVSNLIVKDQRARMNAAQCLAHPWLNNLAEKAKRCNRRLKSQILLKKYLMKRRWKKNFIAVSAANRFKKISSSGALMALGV

Chain of TTK (human) (P33981 whole entry, looked up): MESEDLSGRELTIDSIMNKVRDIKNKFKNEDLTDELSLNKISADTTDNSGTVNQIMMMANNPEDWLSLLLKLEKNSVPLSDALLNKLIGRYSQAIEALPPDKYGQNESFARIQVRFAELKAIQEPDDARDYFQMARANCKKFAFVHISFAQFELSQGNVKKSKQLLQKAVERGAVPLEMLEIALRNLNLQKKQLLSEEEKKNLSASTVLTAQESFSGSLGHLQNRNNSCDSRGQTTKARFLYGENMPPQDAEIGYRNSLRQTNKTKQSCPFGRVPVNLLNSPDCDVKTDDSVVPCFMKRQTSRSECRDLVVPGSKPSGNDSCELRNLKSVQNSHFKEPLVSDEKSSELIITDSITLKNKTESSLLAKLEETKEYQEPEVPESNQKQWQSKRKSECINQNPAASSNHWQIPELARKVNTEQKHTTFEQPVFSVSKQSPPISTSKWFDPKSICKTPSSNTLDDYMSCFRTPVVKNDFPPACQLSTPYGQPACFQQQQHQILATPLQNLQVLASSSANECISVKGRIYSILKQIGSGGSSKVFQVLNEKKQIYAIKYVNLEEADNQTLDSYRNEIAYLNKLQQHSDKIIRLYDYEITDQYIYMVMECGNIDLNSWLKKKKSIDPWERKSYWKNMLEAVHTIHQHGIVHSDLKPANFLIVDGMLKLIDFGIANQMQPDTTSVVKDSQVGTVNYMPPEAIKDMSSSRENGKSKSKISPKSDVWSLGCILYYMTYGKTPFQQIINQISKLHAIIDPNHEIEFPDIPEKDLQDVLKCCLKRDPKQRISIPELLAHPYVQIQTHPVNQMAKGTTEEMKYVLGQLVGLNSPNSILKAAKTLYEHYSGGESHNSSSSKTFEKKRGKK
Chain of MAPK9 (human) (P45984 whole entry, looked up): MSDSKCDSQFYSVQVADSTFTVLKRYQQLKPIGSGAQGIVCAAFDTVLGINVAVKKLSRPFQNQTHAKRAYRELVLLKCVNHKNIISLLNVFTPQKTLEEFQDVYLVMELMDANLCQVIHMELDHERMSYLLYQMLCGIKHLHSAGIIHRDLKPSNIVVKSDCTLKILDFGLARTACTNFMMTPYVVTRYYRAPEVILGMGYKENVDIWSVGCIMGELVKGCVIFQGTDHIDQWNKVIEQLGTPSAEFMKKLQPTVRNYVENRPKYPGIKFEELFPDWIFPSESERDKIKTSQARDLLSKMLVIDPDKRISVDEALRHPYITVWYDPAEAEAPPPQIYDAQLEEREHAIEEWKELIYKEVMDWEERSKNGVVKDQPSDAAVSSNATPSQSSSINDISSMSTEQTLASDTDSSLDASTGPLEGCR
Chain of MAPKAPK3 (human) (Q16644 whole entry, looked up): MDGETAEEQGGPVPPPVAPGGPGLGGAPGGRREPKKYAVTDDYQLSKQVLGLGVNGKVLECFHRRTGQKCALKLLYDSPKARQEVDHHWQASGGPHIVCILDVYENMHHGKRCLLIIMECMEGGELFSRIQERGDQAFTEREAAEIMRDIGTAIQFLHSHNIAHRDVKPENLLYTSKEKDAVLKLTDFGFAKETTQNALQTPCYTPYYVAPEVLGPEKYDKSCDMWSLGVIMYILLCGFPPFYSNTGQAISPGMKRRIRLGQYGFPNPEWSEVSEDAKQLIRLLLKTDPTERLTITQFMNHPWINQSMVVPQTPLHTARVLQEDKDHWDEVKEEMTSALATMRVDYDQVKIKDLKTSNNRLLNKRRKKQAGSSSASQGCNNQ
Chain of PRKG2 (human) (Q13237 whole entry, looked up): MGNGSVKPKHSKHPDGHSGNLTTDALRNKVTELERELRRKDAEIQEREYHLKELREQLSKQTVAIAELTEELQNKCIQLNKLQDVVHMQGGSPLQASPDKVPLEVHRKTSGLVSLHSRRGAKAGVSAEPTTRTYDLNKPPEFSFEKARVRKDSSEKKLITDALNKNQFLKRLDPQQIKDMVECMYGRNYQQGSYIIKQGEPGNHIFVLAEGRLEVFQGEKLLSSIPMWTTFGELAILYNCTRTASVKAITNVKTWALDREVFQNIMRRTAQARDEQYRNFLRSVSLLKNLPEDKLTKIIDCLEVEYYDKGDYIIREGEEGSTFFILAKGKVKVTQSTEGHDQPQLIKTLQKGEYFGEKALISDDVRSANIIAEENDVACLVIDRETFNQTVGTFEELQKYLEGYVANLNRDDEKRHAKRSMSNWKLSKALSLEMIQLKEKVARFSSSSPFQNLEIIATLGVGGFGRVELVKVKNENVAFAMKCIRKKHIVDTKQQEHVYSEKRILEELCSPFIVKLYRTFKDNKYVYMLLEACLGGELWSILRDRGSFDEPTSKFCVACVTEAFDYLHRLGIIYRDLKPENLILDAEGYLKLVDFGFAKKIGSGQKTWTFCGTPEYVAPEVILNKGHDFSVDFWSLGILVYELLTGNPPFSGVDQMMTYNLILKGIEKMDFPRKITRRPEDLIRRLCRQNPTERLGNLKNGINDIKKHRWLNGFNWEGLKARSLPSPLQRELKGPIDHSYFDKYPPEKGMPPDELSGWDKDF
Chain of FGR (human) (P09769 whole entry, looked up): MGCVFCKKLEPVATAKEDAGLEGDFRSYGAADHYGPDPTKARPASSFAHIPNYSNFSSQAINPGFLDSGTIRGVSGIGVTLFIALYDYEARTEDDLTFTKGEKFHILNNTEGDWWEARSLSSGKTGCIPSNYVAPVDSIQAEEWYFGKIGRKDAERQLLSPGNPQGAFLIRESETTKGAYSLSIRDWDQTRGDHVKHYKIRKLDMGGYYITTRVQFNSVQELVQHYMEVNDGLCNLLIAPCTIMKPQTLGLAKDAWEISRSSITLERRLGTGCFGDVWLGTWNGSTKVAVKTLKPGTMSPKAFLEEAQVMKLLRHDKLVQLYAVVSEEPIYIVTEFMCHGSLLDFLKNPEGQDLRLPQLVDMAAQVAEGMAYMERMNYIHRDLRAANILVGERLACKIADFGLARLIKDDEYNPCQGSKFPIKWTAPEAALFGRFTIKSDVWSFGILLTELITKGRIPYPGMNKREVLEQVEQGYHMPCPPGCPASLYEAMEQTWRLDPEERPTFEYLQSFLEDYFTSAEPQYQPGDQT
Chain of FES (human) (P07332 whole entry, looked up): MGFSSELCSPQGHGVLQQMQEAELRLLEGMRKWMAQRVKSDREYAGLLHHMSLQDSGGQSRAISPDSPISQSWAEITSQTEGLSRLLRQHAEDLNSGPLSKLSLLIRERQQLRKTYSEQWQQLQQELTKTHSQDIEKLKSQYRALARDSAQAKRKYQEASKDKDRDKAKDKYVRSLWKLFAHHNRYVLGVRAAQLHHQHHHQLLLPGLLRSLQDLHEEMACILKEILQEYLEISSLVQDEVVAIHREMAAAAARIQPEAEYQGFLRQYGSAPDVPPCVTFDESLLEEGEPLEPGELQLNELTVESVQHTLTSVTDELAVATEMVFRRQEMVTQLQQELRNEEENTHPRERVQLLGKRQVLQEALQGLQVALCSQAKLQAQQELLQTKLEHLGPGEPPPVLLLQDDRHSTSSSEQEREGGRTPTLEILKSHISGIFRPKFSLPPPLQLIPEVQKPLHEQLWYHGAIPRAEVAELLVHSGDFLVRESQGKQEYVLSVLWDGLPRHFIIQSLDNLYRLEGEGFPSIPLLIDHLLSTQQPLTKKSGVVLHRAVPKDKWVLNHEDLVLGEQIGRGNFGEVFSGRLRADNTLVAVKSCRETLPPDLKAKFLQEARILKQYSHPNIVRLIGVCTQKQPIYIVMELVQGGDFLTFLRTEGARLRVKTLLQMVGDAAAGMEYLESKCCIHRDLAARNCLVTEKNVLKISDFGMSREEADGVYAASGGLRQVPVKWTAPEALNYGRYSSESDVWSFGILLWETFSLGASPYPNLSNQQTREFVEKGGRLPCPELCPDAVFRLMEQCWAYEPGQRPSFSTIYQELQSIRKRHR
Chain of CAMK1G (human) (Q96NX5 whole entry, looked up): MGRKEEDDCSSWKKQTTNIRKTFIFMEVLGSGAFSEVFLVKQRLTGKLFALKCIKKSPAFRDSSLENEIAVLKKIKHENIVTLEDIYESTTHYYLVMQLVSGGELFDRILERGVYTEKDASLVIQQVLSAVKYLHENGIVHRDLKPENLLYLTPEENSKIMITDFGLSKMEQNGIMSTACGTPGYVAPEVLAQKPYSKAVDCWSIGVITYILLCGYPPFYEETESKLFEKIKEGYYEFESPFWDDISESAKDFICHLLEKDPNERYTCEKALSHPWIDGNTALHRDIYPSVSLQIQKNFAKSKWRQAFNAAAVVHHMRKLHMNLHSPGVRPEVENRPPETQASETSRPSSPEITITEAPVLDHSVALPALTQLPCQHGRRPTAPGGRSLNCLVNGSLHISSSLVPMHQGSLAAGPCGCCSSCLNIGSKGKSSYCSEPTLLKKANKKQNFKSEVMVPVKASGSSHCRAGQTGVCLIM

- residual activity (FGR (human)): 91%
- residual activity (CSNK1G1 (human)): 110%
- residual activity (PRKCZ (human)): 99.5%
- residual activity (DCLK2 (human)): 104%
- residual activity (MERTK (human)): 98.5%
- residual activity (VRK1 (human)): 101%
- residual activity (INSRR (human)): 88%
- residual activity (TEK (human)): 95.5%
- residual activity (MARK3 (human)): 110%
- residual activity (MAPKAPK3 (human)): 100%
- residual activity (CDK7 CCNH MNAT1 (human)): 102%
- residual activity (FES (human)): 99%
- residual activity (PAK4 (human)): 97.5%
- residual activity (TXK (human)): 85.5%
- residual activity (MAPK9 (human)): 80.5%
- residual activity (EPHB1 (human)): 90.5%
- residual activity (CLK1 (human)): 99%
- residual activity (CDK9 CCNK (human)): 96.5%
- residual activity (TTK (human)): 102%
- residual activity (CAMK2B (human)): 95.5%
- residual activity (FER (human)): 85.5%
- residual activity (FGFR3 (human)): 80.5%
- residual activity (NTRK3 (human)): 102%
- residual activity (LRRK2 (human)): 99%
- residual activity (CDK6 CCND3 (human)): 102%
- residual activity (GRK5 (human)): 101%
- residual activity (PLK3 (human)): 106%
- residual activity (GSG2 (human)): 98%
- residual activity (CSNK1G2 (human)): 90.5%
- residual activity (GSK3A (human)): 102%
- residual activity (ACVRL1 (human)): 98%
- residual activity (CAMK1G (human)): 84%
- residual activity (CLK2 (human)): 89.5%
- residual activity (EPHA6 (human)): 90%
- residual activity (LIMK1 (human)): 99.5%
- residual activity (TGFBR1 (human)): 100%
- residual activity (STK16 (human)): 102%
- residual activity (PRKG2 (human)): 97%
- residual activity (CSK (human)): 89.5%
- residual activity (PAK7 (human)): 102%
- residual activity (OXSR1 (human)): 92.5%
- residual activity (PRKD2 (human)): 98%
- residual activity (TLK2 (human)): 101%
- residual activity (MYLK2 (human)): 96.5%
Compound: CC[C@H](C)n1cc(C)c2c(C(=O)NCc3c(C)cc(C)[nH]c3=O)cc(-c3ccc(N4CCNCC4)nc3)cc21
